Results: patent publication US6475996B1, “Use of a vector expressing DNA polymerase β as medicine” (Centre National De La Recherche Scientifique (CNRS), priority 1996, dated 2002)

Assays:
[1] = system: E. coli SC 18-12; assay: Functionality check of pZHTkβ: survival of E. coli SC 18-12; assay type: cell-based; details: Zeocine 25 μg/ml
Description: The functionality of the construct was checked using E. coli bacterial strains,
1—either by transforming the strain SC 18-12 for the expression of pol β,

[2] = molecular target: DNA polymerase β (Homo sapiens, UniProt P06746); details: in vitro, compared with dCMP (Copeland et al., 1992); cited from earlier work
[3] = molecular target: T1, pol β (Rattus norvegicus, UniProt P06766); assay: DNA replication test with extracts of pol β-transfected B16 cells; assay type: biochemical; details: extracts of B16 cells transfected with pUT-pol β
T1 construct: expressed in transfected cells; host or cells: B16 mouse melanoma cells transfected with pUT-pol β; cell extracts

Cc1c(N)nc([C@H](CC(N)=O)NC[C@H](N)C(N)=O)nc1C(=O)N[C@H](C(=O)N[C@H](C)[C@@H](O)[C@H](C)C(=O)N[C@H](C(=O)NCCC1=N[C@@H](c2nc(C(=O)NCCCCN=C(N)N)cs2)CS1)[C@@H](C)O)[C@@H](O[C@@H]1O[C@@H](CO)[C@@H](O)[C@H](O)[C@@H]1O[C@H]1O[C@H](CO)[C@@H](O)[C@H](OC(N)=O)[C@@H]1O)c1cnc[nH]1 [Zeocine]
Survival (%) ([1]; SC 18-12/pZHTkβ): 97%
Survival (%) ([1]; SC 18-12 non-transformed): 5%

Nc1ccn([C@H]2CC[C@@H](COP(=O)(O)O)O2)c(=O)n1 [ddCMP]
Efficacy of incorporation by DNA polymerase β [2]: comparable to that observed for the incorporation of the natural antagonist dCMP

Nc1ccn([C@H]2CC[C@@H](COP(=O)(O)OP(=O)(O)OP(=O)(O)O)O2)c(=O)n1 [triphosphorylated ddC]
In vitro incorporation into the G-rich nucleotide substrate [3]: allowed an in vitro incorporation
